Measured values from publication PMC6199744, “Development of Chemical Proteomics for the Folateome and Analysis of the Kinetoplastid Folateome” (ACS Infectious Diseases, 2018).
Where two headings read alike, the source gives them in different places.

What was measured:
Type in all cases: binding
[1] = target: T1, HeLa cell extract proteins (Homo sapiens, UniProt O43809)
T1 construct: endogenous in cells; host or cells: HeLa cell extract

[2] = target: T2, HeLa cell extract proteins (Homo sapiens, UniProt O60664)
T2 construct: endogenous in cells; host or cells: HeLa cell extract
T2 sequence (O60664 1-434): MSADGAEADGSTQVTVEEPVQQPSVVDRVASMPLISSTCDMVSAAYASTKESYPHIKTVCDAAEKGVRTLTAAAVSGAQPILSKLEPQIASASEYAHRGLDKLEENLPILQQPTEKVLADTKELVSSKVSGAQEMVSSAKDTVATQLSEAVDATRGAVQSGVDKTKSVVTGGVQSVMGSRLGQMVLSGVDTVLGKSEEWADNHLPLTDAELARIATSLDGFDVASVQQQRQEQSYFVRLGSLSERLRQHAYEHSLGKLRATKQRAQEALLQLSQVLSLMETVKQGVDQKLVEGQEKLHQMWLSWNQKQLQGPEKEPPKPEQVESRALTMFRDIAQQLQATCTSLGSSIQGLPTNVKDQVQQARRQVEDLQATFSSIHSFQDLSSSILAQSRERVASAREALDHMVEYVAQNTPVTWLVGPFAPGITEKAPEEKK

[3] = target: T3, HeLa cell extract proteins (Homo sapiens, UniProt P56381)
T3 construct: endogenous in cells; host or cells: HeLa cell extract
T3 sequence (P56381 1-51): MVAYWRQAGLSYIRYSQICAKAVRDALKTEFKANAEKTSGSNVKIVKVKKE

[4] = target: T4, HeLa cell extract proteins (Homo sapiens, UniProt P61019)
T4 construct: endogenous in cells; host or cells: HeLa cell extract

[5] = target: T5, HeLa cell extract proteins (Homo sapiens, UniProt Q53G59)
T5 construct: endogenous in cells; host or cells: HeLa cell extract
T5 sequence (Q53G59 1-568): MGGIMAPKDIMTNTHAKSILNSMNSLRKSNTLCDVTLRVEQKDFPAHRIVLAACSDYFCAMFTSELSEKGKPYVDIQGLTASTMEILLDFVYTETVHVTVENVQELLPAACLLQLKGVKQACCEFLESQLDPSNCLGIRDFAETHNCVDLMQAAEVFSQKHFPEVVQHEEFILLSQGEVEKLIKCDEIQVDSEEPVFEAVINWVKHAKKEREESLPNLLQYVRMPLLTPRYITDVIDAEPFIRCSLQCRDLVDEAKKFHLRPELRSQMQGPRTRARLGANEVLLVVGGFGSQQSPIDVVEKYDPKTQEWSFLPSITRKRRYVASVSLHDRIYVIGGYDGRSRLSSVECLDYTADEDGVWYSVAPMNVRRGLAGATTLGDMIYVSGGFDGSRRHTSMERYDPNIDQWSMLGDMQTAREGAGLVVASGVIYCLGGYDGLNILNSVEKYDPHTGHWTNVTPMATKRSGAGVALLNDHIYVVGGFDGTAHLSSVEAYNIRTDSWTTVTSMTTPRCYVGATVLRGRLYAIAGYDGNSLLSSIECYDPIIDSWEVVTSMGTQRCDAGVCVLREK

[6] = target: T6, HeLa cell extract proteins (Homo sapiens, UniProt Q8TCG1)
T6 construct: endogenous in cells; host or cells: HeLa cell extract

[7] = target: T7, HeLa cell extract proteins (Homo sapiens, UniProt Q9HCC0)
T7 construct: endogenous in cells; host or cells: HeLa cell extract
T7 sequence (Q9HCC0 23-563): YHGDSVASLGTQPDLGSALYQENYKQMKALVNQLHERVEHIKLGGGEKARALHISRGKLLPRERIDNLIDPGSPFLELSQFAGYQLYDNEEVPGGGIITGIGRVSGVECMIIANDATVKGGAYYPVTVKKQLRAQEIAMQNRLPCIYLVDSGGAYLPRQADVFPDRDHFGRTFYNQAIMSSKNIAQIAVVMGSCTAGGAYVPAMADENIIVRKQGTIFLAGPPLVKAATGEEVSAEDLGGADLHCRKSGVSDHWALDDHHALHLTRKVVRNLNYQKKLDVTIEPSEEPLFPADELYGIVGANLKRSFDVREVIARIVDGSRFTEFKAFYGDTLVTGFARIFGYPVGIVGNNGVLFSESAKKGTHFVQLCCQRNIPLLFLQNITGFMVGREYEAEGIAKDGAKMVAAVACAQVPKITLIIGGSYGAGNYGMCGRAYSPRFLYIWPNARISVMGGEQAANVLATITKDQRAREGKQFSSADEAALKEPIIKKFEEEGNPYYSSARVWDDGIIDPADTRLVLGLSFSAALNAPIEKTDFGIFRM

[8] = HeLa, protein KLHL12 (KELCH-LIKE PROTEIN 12)
[9] = captured protein KIAA1524, HeLa

T1 sequence (O43809 whole entry): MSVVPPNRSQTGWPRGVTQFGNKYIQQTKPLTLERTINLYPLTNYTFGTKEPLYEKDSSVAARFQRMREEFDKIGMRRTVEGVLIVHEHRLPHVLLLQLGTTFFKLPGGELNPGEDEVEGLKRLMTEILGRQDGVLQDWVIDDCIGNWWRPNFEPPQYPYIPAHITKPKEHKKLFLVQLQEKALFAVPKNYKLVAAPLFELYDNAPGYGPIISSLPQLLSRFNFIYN
T4 sequence (P61019 whole entry): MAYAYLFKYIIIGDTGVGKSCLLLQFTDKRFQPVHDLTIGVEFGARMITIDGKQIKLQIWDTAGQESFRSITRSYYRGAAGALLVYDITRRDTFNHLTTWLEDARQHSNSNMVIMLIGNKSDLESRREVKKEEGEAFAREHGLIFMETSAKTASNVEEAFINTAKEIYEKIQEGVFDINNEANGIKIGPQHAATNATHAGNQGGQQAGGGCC

SMILES	fold changes relative to vehicle control ([1]; protein NUDT21, HeLa)	fold changes relative to vehicle control ([2]; protein M6PRBP1, HeLa)	fold changes relative to vehicle control ([3]; HeLa, captured protein ATP5E)	fold changes relative to vehicle control ([4]; HeLa, protein RAB2A)	fold changes relative to vehicle control [5, 8]	fold changes relative to vehicle control ([6]; HeLa, protein KIAA1524)	fold changes relative to vehicle control ([7]; HeLa, protein MCCC2)	fold changes relative to vehicle control [1]	fold changes relative to vehicle control [2]	fold changes relative to vehicle control [3]	fold changes relative to vehicle control [4]	fold changes relative to vehicle control [5]	fold changes relative to vehicle control [6]	fold changes relative to vehicle control [7]	fold changes relative to vehicle control ([3]; captured protein ATP5E, HeLa)	fold changes relative to vehicle control ([4]; captured protein RAB2A, HeLa)	fold changes relative to vehicle control ([5]; protein KLHL12, HeLa)	fold changes relative to vehicle control [6, 9]	fold changes relative to vehicle control ([7]; captured protein MCCC2, HeLa)
Nc1nc2c(c(=O)[nH]1)N(C=O)C(CNc1ccc(C(=O)N[C@@H](CCC(=O)O)C(=O)O)cc1)CN2 (stereo partly shown) [LEU, leucovorin]	1.11	1	1.13	0.85	1.36	0.87	0.94												
Nc1nc2[nH]cc(CCc3ccc(C(=O)N[C@@H](CCC(=O)O)C(=O)O)cc3)c2c(=O)[nH]1 [PTX, pemetrexed]								0.97	1.06	1.34	0.93	1.07	0.87	0.87					
CCCCCCOc1ccc(Cc2cnc(N)nc2N)cc1 [compound 1]	1.16	1.23													0.88	0.64	1.15	0.97	0.78
CCCCCCOc1cccc(Cc2cnc(N)nc2N)c1 [compound 2]	1.28	1.68													0.96	1.09	1.3	1.09	1.08
Nc1nc2cccc(-c3ccccc3)c2n1Cc1ccc(Cl)c(Cl)c1 [compound 3]	0.99	0.94													0.92	0.83	0.97	0.98	0.86
NCCOCCOCC(=O)Nc1nc2ncc(CNc3ccc(C(=O)NC(CCC(=O)O)C(=O)O)cc3)nc2c(=O)[nH]1 (stereo not shown) [compound 6]	1	1.27	1.39	1.09	1.05	0.94	1												
NCCCNc1ccc(C(=O)NC(CCC(=O)O)C(=O)O)cc1 (stereo not shown) [compound 7]	0.98	0.93	1.37	0.94	1.31	0.89	1												
